Key:
Format in all cases: functional, cell-based
MDA-MB-231 = test: Cytotoxicity against human MDA-MB-231 cells assessed as inhibition of cell growth incubated for 72 hrs by MTT assay; details: MDA-MB-231, 72 h
OVCAR-3 = test: Cytotoxicity against human OVCAR-3 cells assessed as inhibition of cell growth incubated for 72 hrs by MTT assay; details: OVCAR-3, 72 h
MDA-MB-435 = test: Cytotoxicity against human MDA-MB-435 cells assessed as inhibition of cell growth incubated for 72 hrs by MTT assay; details: MDA-MB-435, 72 h

Compound: CC1=C[C@]2(C)C(=C(C)[C@@H]3[C@@H]4C[C@H](C)C[C@H](C)[C@H]4[C@H]4Oc5ccc(cc5)C[C@@]5(O)C=C(C(=O)N5)C(=O)[C@H]2[C@@H]43)[C@@H]1C
- IC50 (MDA-MB-231): 0.4 µM
- IC50 (OVCAR-3): 1.6 µM
- IC50 (MDA-MB-435): 1.5 µM

Compound: CC1=C[C@]2(C)C(=C(C)[C@@H]3[C@@H]4C[C@H](C)C[C@H](C)[C@H]4[C@H]4Oc5ccc(cc5)C[C@]5(O)NC(=O)[C@]6(O[C@H]65)C(=O)[C@H]2[C@@H]43)[C@@H]1C
- IC50 (MDA-MB-231): 4.8 µM
- IC50 (OVCAR-3): 21 µM
- IC50 (MDA-MB-435): 17 µM

Compound: CC1=C[C@]2(C)C(=C(C)[C@@H]3[C@@H]4C[C@H](C)C[C@H](C)[C@H]4[C@H]4Oc5ccc(cc5)CC(=O)[C@@H]5O[C@@]5(C(N)=O)C(=O)[C@H]2[C@@H]43)[C@@H]1C
- IC50 (MDA-MB-231): 3.2 µM
- IC50 (OVCAR-3): 24 µM
- IC50 (MDA-MB-435): 18 µM

Compound: CC(=O)O[C@]12Cc3ccc(cc3)O[C@@H]3[C@H]4[C@@H](C[C@H](C)C[C@@H]4C)[C@H]4C(C)=C5[C@H](C)C(C)=C[C@@]5(C)[C@@H](C(=O)[C@@]5(O[C@H]51)C(=O)N2)[C@@H]34
- IC50 (MDA-MB-231): 4.4 µM
- IC50 (OVCAR-3): 20 µM
- IC50 (MDA-MB-435): 20 µM

Compound: CO[C@@H]1/C2=C(\O)[C@H]3[C@H]4[C@H](Oc5ccc(cc5)C[C@]1(O)NC2=O)[C@H]1[C@@H](C[C@H](C)C[C@@H]1C)[C@H]4C(C)=C1[C@H](C)C(C)=C[C@]13C
- IC50 (MDA-MB-231): 0.4 µM
- IC50 (OVCAR-3): 1 µM
- IC50 (MDA-MB-435): 1.8 µM

— ChEMBL document CHEMBL5257048, “Embellicines C-E: Macrocyclic Alkaloids with a Cyclopenta[b]fluorene Ring System from the Fungus Sarocladium sp” (J Nat Prod, 2023)
